Measured values taken from patent US20080227637A1, “A Method of Controlling Weeds” (BASF Aktiengesellschaft, priority 2005, published 2008).

What was measured:
Format in all cases: in vivo
[1] = test system: Glyphosate susceptible marestail (ERICA); experiment: Greenhouse test, post-emergence control of glyphosate susceptible marestail; conditions: use rate 420 g/ha
Excerpt: (§1) The phenyluracils I and/or the other active ingredients according to the present invention were formulated in a suitable way, either separately or in mixture, e.g. as emulsifiable concentrates (EC), soluble concentrates (SL), suspo-emulsions (SE), suspension concentrates (SC) or water-dispersible granules (WG). The formulation(s) were suspended or emulsified in water as a distribution medium immediately prior to spraying. Afterwards, the aqueous mixture was evenly sprayed on the test plots or plant pots by means of finely distributing nozzles.
(§2) For the greenhouse tests, plants were grown in pots to a height between 3 and 6 cm, and then treated (post-emergence). During the test period of 29 days, the plants were tended.
(§3) The evaluation of the damage caused by the phenyluracils I and/or the other active ingredients according to the present invention was carried out using a scale from 0 to 100%, compared to the untreated control plots. Here, 0 means no damage and 100 means complete destruction of the plants of a respective weed or crop species.
(§4) In this example, glyphosate (isopropylammonium salt) was formulated as a 353 g/l SL and Phenyluracil I.7 as a 120 g/l EC. Prior to application, the formulated active ingredients were tank-mixed with an aqueous 187 l/ha spray solution which contained, in addition, 15 g/l of ammonium sulphate and 2.5 g/l of non-ionic surfactant.

[2] = test system: Glyphosate resistant marestail (ERICA); experiment: Greenhouse test, post-emergence control of glyphosate resistant marestail; conditions: use rate 420 g/ha
Excerpt: as §1, §2, §3, §4

[3] = test system: Glyphosate resistant cotton; experiment: Field test, control of glyphosate resistant cotton in post-directed treatment; conditions: glyphosate 560 g/ha
Description: (§5) In the examples below, the value E which is to be expected if the activity of the individual compounds is just additive was calculated using the method of S. R. Colby (1967) “Calculating synergistic and antagonistic responses of herbicide combinations”, Weeds 15, p. 22 ff.
(§6) where X=effect in percent using active compound A at an application rate a; Y=effect in percent using active compound B at an application rate b; E=expected effect (in %) of A+B at application rates a+b.
(§7) If the experimentally determined value is higher than the value E calculated according to Colby's equation, a synergistic effect is present.
as §1
(§8) As regards the field tests, the test plots were of uniform size (typically between 14 and 37 square meters, each) and the distribution of treated and untreated plots was organized according to a randomised bloc design. […]

[4] = test system: glyphosate resistant corn; experiment: Field test, control of volunteer glyphosate resistant corn by pre-emergence application; conditions: Imazethapyr 70 g/ha, pre-emergence to soybean crop
Description: as §5, §6, §7, §1, §8

SMILES: O=C(O)CNCP(=O)(O)O [Glyphosate, glyphosate]
- Glyphosate susceptible marestail (ERICA) at 29 DAT (% herbicide control) [1]: 98%
- Glyphosate resistant marestail (ERICA) at 29 DAT (% herbicide control) [2]: 0%
- Glyphosate resistant cotton at 3 DAT (% control), Found [3]: 0%

SMILES: CCc1cnc(C2=NC(C)(C(C)C)C(=O)N2)c(C(=O)O)c1 (stereo not shown) [Imazethapyr, imazethapyr]
- Control of glyphosate resistant corn at 29 DAT (% control), Found [4]: 23%
